Source: BindingDB's records for doi:10.1007/s10822-022-00478-x (Roche Innovation Center Basel, F. Hoffmann-La Roche Ltd., 2022)

Target: cAMP and cAMP-inhibited cGMP 3',5'-cyclic phosphodiesterase 10A (Homo sapiens, UniProt Q9Y233)
Assay: PDE10A assay
Procedure, shortened: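 Scintillation proximity readout of [3H]cGMP hydrolysis (50 nM final substrate, 15 min) by 2 ng/well human PDE10A after 15 min compound preincubation at RT, pH 7.5 with MgCl2. Four-parameter logistic fit gave IC50, reported as pIC50.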

| Compound | IC50 |
| --- | --- |
| Cc1ncc(C)n2nc(CCc3nc(N(C)CC4CC4)nn3C)nc12 [Roche-Dataset for PDE10A, Compound 841] | 117 nM |
| COCCN(C)c1nc(CCc2nc3c(C)ncc(C)n3n2)nn1C [Roche-Dataset for PDE10A, Compound 847] | 1780 nM |
| CC(C)c1nc2cc(NC(=O)c3c(C(=O)O)cnn3C)ccn2n1 [Roche-Dataset for PDE10A, Compound 848] | 1230 nM |
| CN1C(=O)c2ccc(NC(=O)c3nc(C4CC4)ccc3Nc3cncnc3)cc2C1=O [Roche-Dataset for PDE10A, Compound 849] | 48 nM |
| Cn1cc(-c2ccccc2)nc1CCc1nc2c(cnn2C)c(=O)[nH]1 [Roche-Dataset for PDE10A, Compound 854] | 50 nM |
| O=C(Nc1cncc(OC(F)F)c1)c1nc(C2CC2)cnc1Nc1cncnc1 [Roche-Dataset for PDE10A, Compound 855] | 134 nM |
| CN(C)CCn1nccc1NC(=O)c1nc(C2CC2)cnc1Nc1cncnc1 [Roche-Dataset for PDE10A, Compound 857] | 314 nM |
| O=C(Nc1ccn(CC(F)(F)F)n1)c1nc(Cl)ccc1Nc1cncnc1 [Roche-Dataset for PDE10A, Compound 859] | 156 nM |
| O=C(Nc1ccnn1CCO)c1nc(C2CC2)ccc1Nc1cncnc1 [Roche-Dataset for PDE10A, Compound 860] | 49 nM |
| Cc1c(Cl)cc(Cl)c2nc(CCc3nn(C)cc3Cl)nn12 [Roche-Dataset for PDE10A, Compound 861] | 333 nM |
| Cc1ccc(CNC(=O)c2cnn(C)c2C(=O)Nc2ccn3cc(-c4ccccc4)nc3n2)nc1 [Roche-Dataset for PDE10A, Compound 862] | 322 nM |
| COCCn1ccc(NC(=O)c2nc(Cl)ccc2Nc2cncnc2)n1 [Roche-Dataset for PDE10A, Compound 864] | 117 nM |
| COCCn1nccc1NC(=O)c1nc(C2CC2)ccc1Nc1cncnc1 [Roche-Dataset for PDE10A, Compound 868] | 43 nM |
| CC(=O)c1cc(NC(=O)c2nc(C3CC3)cnc2Nc2cncnc2)ccc1F [Roche-Dataset for PDE10A, Compound 869] | 9.64 nM |
| CCCNC(=O)c1cc(NC(=O)c2c(C(=O)N3CCC3)cnn2C)nn1C [Roche-Dataset for PDE10A, Compound 871] | 10000 nM |
| O=C(Nc1cccc(OC(F)(F)F)c1)c1nc(C2CC2)cnc1Nc1cncnc1 [Roche-Dataset for PDE10A, Compound 874] | 31 nM |
| CCC(=O)c1cc(NC(=O)c2nc(C3CC3)cnc2Nc2cncnc2)ccc1O [Roche-Dataset for PDE10A, Compound 875] | 26 nM |
| CCOc1ccccc1C(=O)Nc1cc(-c2ccccn2)n[nH]1 [Roche-Dataset for PDE10A, Compound 876] | 1480 nM |
| O=C(Nc1cccc(N2CCCC2=O)c1)c1nc(C2CC2)cnc1Nc1cncnc1 [Roche-Dataset for PDE10A, Compound 878] | 15 nM |
| O=C(NCC1CC1)c1cccc(NC(=O)c2nc(C3CC3)cnc2Nc2cncnc2)n1 [Roche-Dataset for PDE10A, Compound 880] | 9.65 nM |
| O=C1CCc2ccc(NC(=O)c3nc(C4CC4)cnc3Nc3cncnc3)cc21 [Roche-Dataset for PDE10A, Compound 881] | 27 nM |
| CN(C)C(=O)Cn1ccc(NC(=O)c2nc(C3CC3)cnc2Nc2cncnc2)n1 [Roche-Dataset for PDE10A, Compound 882] | 32 nM |

| Compound | IC50 |
| --- | --- |
| Cn1ccc(NC(=O)c2nc(C3CC3)ccc2Nc2cncnc2)n1 [Roche-Dataset for PDE10A, Compound 883] | 118 nM |
| Cc1noc(C(=O)Nc2cc(-c3ccccn3)nn2C)c1Br [Roche-Dataset for PDE10A, Compound 886] | 6220 nM |
| Cc1ncc(C)n2nc(CCc3nc(N4CCNC4=O)nn3C)nc12 [Roche-Dataset for PDE10A, Compound 887] | 1060 nM |
| CC(C)(O)CNC(=O)c1cccc(NC(=O)c2nc(C3CC3)cnc2Nc2cncnc2)n1 [Roche-Dataset for PDE10A, Compound 894] | 5.48 nM |
| O=C(Nc1ccn2nc(-c3ccccc3)nc2c1)c1ccc(Cl)nn1 [Roche-Dataset for PDE10A, Compound 897] | 10000 nM |
| Cc1cc(NC(=O)c2ccc3cc(-c4ccccc4)nn3c2)on1 [Roche-Dataset for PDE10A, Compound 898] | 3350 nM |
| CS(=O)(=O)Nc1cccc(NC(=O)c2nc(C3CC3)cnc2Nc2cncnc2)c1 [Roche-Dataset for PDE10A, Compound 900] | 15 nM |
| O=C(NCCC1CCCCC1)c1nc(C2CC2)cnc1Nc1cncnc1 [Roche-Dataset for PDE10A, Compound 901] | 1410 nM |
| Cn1ncc(C(=O)N2CCC2)c1C(=O)Nc1cn(-c2cnccn2)cn1 [Roche-Dataset for PDE10A, Compound 906] | 2440 nM |
| COc1ccc2c(=O)n(C)c3c(C(C)C)nc(-c4ccccc4Cl)n3c2c1 [Roche-Dataset for PDE10A, Compound 908] | 771 nM |
| Cc1ncc(C)n2nc(/C=C/c3nc(N4CCCN4C)nn3C)nc12 [Roche-Dataset for PDE10A, Compound 911] | 747 nM |
| CCOC(=O)Cc1csc(NC(=O)c2nc(C3CC3)cnc2Nc2cncnc2)n1 [Roche-Dataset for PDE10A, Compound 914] | 4.99 nM |
| O=C(NCCC1CCOCC1)c1nc(C2CC2)cnc1Nc1cncnc1 [Roche-Dataset for PDE10A, Compound 915] | 1470 nM |
| CC(C)Oc1cccc(NC(=O)c2nc(C3CC3)cnc2Nc2cncnc2)n1 [Roche-Dataset for PDE10A, Compound 917] | 24 nM |
| O=C(Nc1cccc(C(=O)N2CCOCC2)n1)c1nc(C2CC2)cnc1Nc1cncnc1 [Roche-Dataset for PDE10A, Compound 920] | 7.49 nM |
| COc1ncccc1C(=O)Nc1cc(-c2ccccn2)nn1C [Roche-Dataset for PDE10A, Compound 921] | 9730 nM |
| O=C(N[C@@H]1CCN(c2ccc(Cl)nn2)C1)c1nc(C2CC2)ccc1Nc1cncnc1 [Roche-Dataset for PDE10A, Compound 923] | 12 nM |
| O=C(NCC1(c2ccccc2)CCOCC1)c1nc(C2CC2)cnc1Nc1cncnc1 [Roche-Dataset for PDE10A, Compound 924] | 1160 nM |
| CC(=O)Nc1nc2cc(NC(=O)c3nc(C)ccc3C)ccc2s1 [Roche-Dataset for PDE10A, Compound 926] | 5770 nM |
| CC(C)NC(=O)c1cccc(NC(=O)c2nc(C3CC3)cnc2Nc2cncnc2)n1 [Roche-Dataset for PDE10A, Compound 928] | 8.6 nM |
| O=C(Nc1ccc2cccnc2c1)c1nc(C2CC2)ccc1Nc1cncnc1 [Roche-Dataset for PDE10A, Compound 929] | 5.75 nM |
| O=C1CCc2c(NC(=O)c3nc(C4CC4)cnc3Nc3cncnc3)cccc21 [Roche-Dataset for PDE10A, Compound 932] | 124 nM |

| Compound | IC50 |
| --- | --- |
| Cn1cc(Br)c(C(=O)Nc2cc(-c3ccccn3)nn2C)n1 [Roche-Dataset for PDE10A, Compound 934] | 811 nM |
| O=C(Nc1conc1-c1ccccc1)c1nc(C2CC2)ccc1Nc1cncnc1 [Roche-Dataset for PDE10A, Compound 935] | 6.91 nM |
| CCOC(=O)c1cnn(C)c1C(=O)Nc1ccn2nc(Br)nc2c1 [Roche-Dataset for PDE10A, Compound 936] | 3500 nM |
| O=C(c1nc(C2CC2)cnc1Nc1cncnc1)N1CCC(Cc2ccccc2)CC1 [Roche-Dataset for PDE10A, Compound 937] | 10000 nM |
| Cn1ncc(C(=O)N2CCOCC2)c1C(=O)N[C@H]1CCn2cc(-c3ccc(F)cc3)nc2C1 [Roche-Dataset for PDE10A, Compound 938] | 624 nM |
| CC(C)C[C@H](CO)NC(=O)c1nc(C2CC2)cnc1Nc1cncnc1 [Roche-Dataset for PDE10A, Compound 939] | 2450 nM |
| Cc1ccc(Nc2cncc(O)n2)c(C(=O)Nc2ccn(C)n2)n1 [Roche-Dataset for PDE10A, Compound 940] | 8140 nM |
| Cn1nc(NC(=O)c2c(C(=O)N3CCC3)cnn2C)cc1C(=O)N1CCCCC1 [Roche-Dataset for PDE10A, Compound 941] | 10000 nM |
| O=C(Nc1cnc(Cl)cc1Cl)c1nc(C2CC2)ccc1Nc1cncnc1 [Roche-Dataset for PDE10A, Compound 942] | 9.94 nM |
| COCCn1ncc(NC(=O)c2nc(C3CC3)ccc2Nc2cncnc2)c1C(=O)N(C)C [Roche-Dataset for PDE10A, Compound 944] | 13 nM |
| O=C(Nc1ccc2nccnc2c1)c1nc(C2CC2)ccc1Nc1cncnc1 [Roche-Dataset for PDE10A, Compound 945] | 55 nM |
| COCCNC(=O)c1nc(C2CC2)cnc1Nc1cncnc1 [Roche-Dataset for PDE10A, Compound 946] | 2540 nM |
| Cc1nc(-c2ccc(Cl)cc2)oc1C(=O)Nc1cc(-c2ccccn2)nn1C [Roche-Dataset for PDE10A, Compound 947] | 967 nM |
| Cc1ccc2c(c1)c(=O)n(C)c1c(C)nc(-c3ccccc3Cl)n21 [Roche-Dataset for PDE10A, Compound 948] | 27 nM |
| O=C(Nc1ccc(O)c2c1CCCC2=O)c1nc(C2CC2)cnc1Nc1cncnc1 [Roche-Dataset for PDE10A, Compound 949] | 10 nM |
| Cn1ncc(C(=O)N2CCC2)c1C(=O)Nc1ccn(Cc2ccccc2)n1 [Roche-Dataset for PDE10A, Compound 950] | 116 nM |
| Cc1nc2ccccc2nc1OCc1csc(N2CCOCC2)n1 [Roche-Dataset for PDE10A, Compound 951] | 2370 nM |
| CC(=O)N1CC(C)(C)c2ccc(NC(=O)c3nc(C4CC4)cnc3Nc3cncnc3)cc21 [Roche-Dataset for PDE10A, Compound 952] | 7.64 nM |
| Cc1ncc(C)n2nc(CCc3nc(C4CCCC4)nn3C)nc12 [Roche-Dataset for PDE10A, Compound 956] | 146 nM |
| CC(=O)c1cccc(NC(=O)c2nc(C3CC3)cnc2Nc2cncnc2)c1 [Roche-Dataset for PDE10A, Compound 957] | 19 nM |
| Cn1ncc(C(=O)N2CCC2)c1C(=O)Nc1cc(-c2ccccc2Cl)n[nH]1 [Roche-Dataset for PDE10A, Compound 958] | 1290 nM |
